Earlier results on six molecules are cited in US12070444B2, “Modulation of molecular markers using S-equol” (Board of Regents, The University of Texas System, priority 2020, dated 2024).

Like-named read-outs stand apart in the source and are kept apart here.

In one data set the test system is TNBC. The conditions noted are these: cited from earlier work.
Another data set deals with Ki67 expression. The note with it: IMPACT trial; cited from earlier work.
The test system of data set [1] is tumor resistance to ICB immunotherapy. The conditions noted are these: recent report (Huang, 2020); cited from earlier work.

avelumab: the response rate in the data set on TNBC (168 TNBC tumors unselected for PD-L1 expression (Dirix et al. 2015)) is 8.6%.

As to `CC/C(=C(\c1ccccc1)c1ccc(OCCN(C)C)cc1)c1ccccc1` [tamoxifen], the “change in the geometric mean of Ki67 expression after two weeks” value with Ki67 expression is given as −59.5%.

Take atezolizumab: the response rate with TNBC (21 evaluable, PD-L1 expressing TNBC tumors (Emens et al. 2015)) was 19%.

On to `CC(C)(C#N)c1cc(Cn2cncn2)cc(C(C)(C)C#N)c1` [anastrazole], for which the “change in the geometric mean of Ki67 expression after two weeks” value in the data set with Ki67 expression is given as −76%.

Regarding pembrolizumab, in the data set with TNBC (Phase 1 study, 27 women, heavily pretreated chemotherapy resistant metastatic TNBC expressing PD-L1 (Nanda et al. 2016)), the response rate is 18.4%.

Regarding `Oc1ccc([C@@H]2Oc3ccc(O)cc3[C@@H]3CCC[C@@H]32)cc1` [LY500307], the “effect on tumor resistance to ICB immunotherapy” value in data set [1] is on record as “overcoming tumor resistance to ICB immunotherapy”.
